Measurements as given in patent publication US12060349B2, “Glucosylceramide synthase inhibitors” (Genzyme Corporation, priority 2012, dated 2024).
pIC50: −log10 of the molar value. Where two headings read alike, the source gives them in different places.

Assays:
[1] = tested on: GM3 expression on the cell surface, C32 human melanoma cells; assay: cell based phenotypic assay, cell surface GM3 by antibody mediated immunofluorescence, C32 (GM3 C32 IC50); details: Homo sapiens, 50% inhibition of GM3 expression on the cell surface
Outline: (§1)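 B16 mouse and C32 human melanoma cells; cell-surface GM3 measured by antibody-mediated immunofluorescence, giving IC50.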

B16 mouse melanoma cells = assay: cell viability in the B16 cell-based assay (Viability, B16 IC50); details: Mus musculus
Outline: (§2)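 Cell death was scored within the cell-based GM3 experiment for each line. The viability value is the concentration producing 50% death, and numbers exceeding 10 signify no cytotoxicity.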

[2] = target: T1, glucosylceramide synthase (Homo sapiens, UniProt Q16739); assay: microsomal assay measuring conversion of ceramide to glucosylceramide by HPLC (GCS IC50); format: biochemical; details: concentration causing 50% inhibition of glucosylceramide synthase activity
T1 construct: Microsomes were isolated from A375 human melanoma cells; endogenous in cells; host or cells: A375 human melanoma cells (microsomal fraction, 100,000 g pellet)
T1 sequence (Q16739 1-394): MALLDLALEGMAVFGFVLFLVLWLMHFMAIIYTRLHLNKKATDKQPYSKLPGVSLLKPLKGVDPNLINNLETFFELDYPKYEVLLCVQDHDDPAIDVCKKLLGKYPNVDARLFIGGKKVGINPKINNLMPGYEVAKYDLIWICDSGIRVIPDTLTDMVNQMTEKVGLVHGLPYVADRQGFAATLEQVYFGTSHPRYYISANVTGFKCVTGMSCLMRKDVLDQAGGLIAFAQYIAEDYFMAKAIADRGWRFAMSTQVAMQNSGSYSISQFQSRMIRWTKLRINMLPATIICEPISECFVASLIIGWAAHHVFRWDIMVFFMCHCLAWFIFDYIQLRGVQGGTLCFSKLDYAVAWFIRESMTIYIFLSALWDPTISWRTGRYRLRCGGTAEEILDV
Outline: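 IC50 is the compound concentration halving glucosylceramide synthase activity. Activity was measured in microsomes, with HPLC quantifying glucosylceramide formed from ceramide.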

[3] = tested on: GM3 expression on the cell surface, B16 mouse melanoma cells; assay: cell based phenotypic assay, cell surface GM3 by antibody mediated immunofluorescence, B16 (GM3 B16 IC50); details: Mus musculus, 50% inhibition of GM3 expression on the cell surface
Outline: as §1

C32 human melanoma cells = assay: cell viability in the C32 cell-based assay (Viability, C32 IC50); details: Homo sapiens, concentration causing 50% cell death, values greater than 10 represent a lack of cell death
Outline: as §2

[4] = C32 human melanoma cells, read-out: GM3 C32 IC50
[5] = B16, B16 cells, concentration causing 50% cell death, values greater than 10 represent a lack of cell death, read-out: Viability, B16 IC50
[6] = B16 mouse melanoma cells, read-out: GM3 B16 IC50
[7] = C32, C32 cells, read-out: Viability, C32 IC50
[8] = read-out: GM3 C32 IC50, C32 human melanoma cells
[9] = B16, read-out: Viability, B16 IC50
[10] = read-out: GM3 B16 IC50, B16 mouse melanoma cells
[11] = C32, read-out: Viability, C32 IC50, C32 cells

SMILES: COCCOc1ccc(-c2ccc(C(C)(C)NC(=O)N3CCN4CCC3CC4)cc2)cc1 [Example 161, N-(2-(4′-(2-Methoxyethoxy)-[1,1′-biphenyl]-4-yl)propan-2-yl)-1,4-diazabicyclo[3.2.2]nonane-4-carboxamide]
- pIC50 [1, 4]: 7.49
- pIC50 (B16 mouse melanoma cells; [5]): 5.50
- pIC50 [2]: 6.60
- pIC50 [3, 6]: 6.51
- pIC50 (C32 human melanoma cells; [7]): 5.50

SMILES: COCCOc1ccc(-c2ccc(C3(NC(=O)NC4CN5CCC4CC5)CC3)cc2)cc1 (stereo not drawn) [Example 162, 1-(1-(4′-(2-Methoxyethoxy)-[1,1′-biphenyl]-4-yl)cyclopropyl)-3-(quinuclidin-3-yl)urea]
- pIC50 [1, 4]: 8.66
- pIC50 (B16 mouse melanoma cells; [5]): 5.45
- pIC50 [2]: 7.55
- pIC50 [3, 6]: 7.14
- pIC50 (C32 human melanoma cells; [7]): 6.00

SMILES: COCCOc1ccc(-c2ccc(C3(NC(=O)NC4(C)CN5CCC4CC5)CC3)cc2)cc1 (stereo not drawn) [Example 163, 1-(1-(4′-(2-Methoxyethoxy)-[1,1′-biphenyl]-4-yl)cyclopropyl)-3-(3-methylquinuclidin-3-yl)urea]
- pIC50 [1, 4]: 9.27
- pIC50 (B16 mouse melanoma cells; [5]): 6.00
- pIC50 [2]: 8.07
- pIC50 [3, 6]: 8.18
- pIC50 (C32 human melanoma cells; [7]): 6.76

SMILES: CCC1(NC(=O)NC2(c3ccc(-c4ccc(OCCOC)cc4)cc3)CC2)CN2CCC1CC2 (stereo not drawn) [Example 164, 1-(3-Ethylquinuclidin-3-yl)-3-(1-(4′-(2-methoxyethoxy)-[1,1′-biphenyl]-4-yl)cyclopropyl)urea]
- pIC50 [1, 4]: 9.69
- pIC50 (B16 mouse melanoma cells; [5]): 6.00
- pIC50 [2]: 8.21
- pIC50 [3, 6]: 8.60
- pIC50 (C32 human melanoma cells; [7]): 6.76

SMILES: COCCOc1ccc(-c2ccc(C3(NC(=O)NC4(C)CCN5CCC4CC5)CC3)cc2)cc1 (stereo not drawn) [Example 165, 1-(1-(4′-(2-Methoxyethoxy)-[1,1′-biphenyl]-4-yl)cyclopropyl)-3-(4-methyl-1-azabicyclo[3.2.2]nonan-4-yl)urea]
- pIC50 [1, 4]: 9.62
- pIC50 (B16 mouse melanoma cells; [5]): 6.50
- pIC50 [2]: 8.38
- pIC50 [3, 6]: 9.29
- pIC50 (C32 human melanoma cells; [7]): 7.50

SMILES: COCCOc1ccc(-c2ccc(C3(NC(=O)OC4CN5CCC4CC5)CC3)cc2)cc1 (stereo not drawn) [Example 166, Quinuclidin-3-yl (1-(4′-(2-methoxyethoxy)-[1,1′-biphenyl]-4-yl)cyclopropyl)carbamate]
- pIC50 [1, 8]: 8.74
- pIC50 (B16 mouse melanoma cells; [9]): 6.50
- pIC50 [2]: 8.24
- pIC50 [3, 10]: 7.66
- pIC50 (C32 human melanoma cells; [11]): 6.67

SMILES: COCCOc1cccc(-c2ccc(C(C)(C)NC(=O)OC3CN4CCC3CC4)cc2)c1 (stereo not drawn) [Example 167, Quinuclidin-3-yl (2-(3′-(2-methoxyethoxy)-[1,1′-biphenyl]-4-yl)propan-2-yl)carbamate]
- pIC50 [1, 8]: 8.27
- pIC50 (B16 mouse melanoma cells; [9]): ≤ 5.00
- pIC50 [2]: 7.98
- pIC50 [3, 10]: 6.96
- pIC50 (C32 human melanoma cells; [11]): 6.00

SMILES: COCCOc1cccc(-c2ccc(C(C)(C)NC(=O)OC3CCN4CCC3CC4)cc2)c1 (stereo not drawn) [Example 168, 1-Azabicyclo[3.2.2]nonan-4-yl (2-(3′-(2-methoxyethoxy)-[1,1′-biphenyl]-4-yl)propan-2-yl)carbamate]
- pIC50 [1, 4]: 8.48
- pIC50 (B16 mouse melanoma cells; [5]): ≤ 5.00
- pIC50 [2]: 8.25
- pIC50 [3, 6]: 7.10
- pIC50 (C32 human melanoma cells; [7]): 6.00

SMILES: COCCOc1cccc(-c2ccc(C(C)(C)NC(=O)N3CCN4CCC3CC4)cc2)c1 [Example 169, N-(2-(3′-(2-Methoxyethoxy)-[1,1′-biphenyl]-4-yl)propan-2-yl)-1,4-diazabicyclo[3.2.2]nonane-4-carboxamide]
- pIC50 [1, 4]: 7.74
- pIC50 (B16 mouse melanoma cells; [5]): ≤ 5.00
- pIC50 [2]: 6.59
- pIC50 [3, 6]: 6.55
- pIC50 (C32 human melanoma cells; [7]): 6.00

SMILES: COCCOc1ccc(-c2cccc(C(C)(C)NC(=O)OC3CN4CCC3CC4)c2)cc1 (stereo not drawn) [Example 170, Quinuclidin-3-yl (2-(4′-(2-methoxyethoxy)-[1,1′-biphenyl]-3-yl)propan-2-yl)carbamate]
- pIC50 [1, 8]: 8.31
- pIC50 (B16 mouse melanoma cells; [9]): ≤ 5.00
- pIC50 [2]: 7.57
- pIC50 [3, 10]: 7.53
- pIC50 (C32 human melanoma cells; [11]): ≤ 5.00

SMILES: COCCOc1ccc(-c2cccc(C(C)(C)NC(=O)OC3CCN4CCC3CC4)c2)cc1 (stereo not drawn) [Example 171, 1-Azabicyclo[3.2.2]nonan-4-yl (2-(4′-(2-methoxyethoxy)-[1,1′-biphenyl]-3-yl)propan-2-yl)carbamate]
- pIC50 [1, 4]: 8.84
- pIC50 (B16 mouse melanoma cells; [5]): 7.13
- pIC50 [2]: 7.49
- pIC50 [3, 6]: 7.92
- pIC50 (C32 human melanoma cells; [7]): 5.40

SMILES: COCCCOc1ccc(-c2ccc(C(C)(C)NC(=O)OC3CN4CCC3CC4)cc2)cc1 (stereo not drawn) [Example 172, Quinuclidin-3-yl (2-(4′-(3-methoxypropoxy)-[1,1′-biphenyl]-4-yl)propan-2-yl)carbamate]
- pIC50 [1, 8]: 8.81
- pIC50 (B16 mouse melanoma cells; [9]): 5.08
- pIC50 [2]: 8.62
- pIC50 [3, 10]: 7.18
- pIC50 (C32 human melanoma cells; [11]): ≤ 5.00

SMILES: COCCCOc1ccc(-c2ccc(C(C)(C)NC(=O)NC3(C)CN4CCC3CC4)cc2)cc1 (stereo not drawn) [Example 173, 1-(2-(4′-(3-Methoxypropoxy)-[1,1′-biphenyl]-4-yl)propan-2-yl)-3-(3-methylquinuclidin-3-yl)urea]
- pIC50 [1, 4]: 9.12
- pIC50 (B16 mouse melanoma cells; [5]): ≤ 5.00
- pIC50 [2]: 8.70
- pIC50 [3, 6]: 7.69
- pIC50 (C32 human melanoma cells; [7]): ≤ 5.00

SMILES: COCCCOc1ccc(-c2ccc(C(C)(C)NC(=O)N3CCN4CCC3CC4)cc2)cc1 [Example 174, N-(2-(4′-(3-Methoxypropoxy)-[1,1′-biphenyl]-4-yl)propan-2-yl)-1,4-diazabicyclo[3.2.2]nonane-4-carboxamide]
- pIC50 [1, 4]: 7.65
- pIC50 (B16 mouse melanoma cells; [5]): ≤ 5.00
- pIC50 [2]: 6.87
- pIC50 [3, 6]: 6.41
- pIC50 (C32 human melanoma cells; [7]): 6.00

SMILES: COCCCOc1ccc(-c2ccc(C3(NC(=O)NC4(C)CN5CCC4CC5)CC3)cc2)cc1 (stereo not drawn) [Example 176, 1-(1-(4′-(3-Methoxypropoxy)-[1,1′-biphenyl]-4-yl)cyclopropyl)-3-(3-methylquinuclidin-3-yl)urea]
- pIC50 [1, 4]: 8.83
- pIC50 (B16 mouse melanoma cells; [5]): ≤ 5.00
- pIC50 [2]: 8.39
- pIC50 [3, 6]: 7.66
- pIC50 (C32 human melanoma cells; [7]): ≤ 5.00

SMILES: COCCCOc1ccc(-c2ccc(C3(NC(=O)NC4(C)CCN5CCC4CC5)CC3)cc2)cc1 (stereo not drawn) [Example 177, 1-(1-(4′-(3-Methoxypropoxy)-[1,1′-biphenyl]-4-yl)cyclopropyl)-3-(4-methyl-1-azabicyclo[3.2.2]nonan-4-yl)urea]
- pIC50 [1, 4]: 9.30
- pIC50 (B16 mouse melanoma cells; [5]): ≤ 5.00
- pIC50 [2]: 8.80
- pIC50 [3, 6]: 8.76
- pIC50 (C32 human melanoma cells; [7]): ≤ 5.00

SMILES: COCCCOc1ccc(-c2ccc(C3(NC(=O)OC4CCN5CCC4CC5)CC3)cc2)cc1 (stereo not drawn) [Example 178, 1-Azabicyclo[3.2.2]nonan-4-yl (1-(4′-(3-methoxypropoxy)-[1,1′-biphenyl]-4-yl)cyclopropyl)carbamate]
- pIC50 [1, 4]: 8.58
- pIC50 (B16 mouse melanoma cells; [5]): ≤ 5.00
- pIC50 [2]: 8.45
- pIC50 [3, 6]: 7.17
- pIC50 (C32 human melanoma cells; [7]): 5.15

SMILES: CC(C)(NC(=O)OC1CN2CCC1CC2)c1ccc(-c2ccc(OCCn3cccn3)cc2)cc1 (stereo not drawn) [Example 179, Quinuclidin-3-yl (2-(4′-(2-(1H-pyrazol-1-yl)ethoxy)-[1,1′-biphenyl]-4-yl)propan-2-yl)carbamate]
- pIC50 [1, 8]: 8.30
- pIC50 (B16 mouse melanoma cells; [9]): 5.06
- pIC50 [2]: 8.17
- pIC50 [3, 10]: 7.02
- pIC50 (C32 human melanoma cells; [11]): 5.50

SMILES: CC(C)(NC(=O)NC1(C)CN2CCC1CC2)c1ccc(-c2ccc(OCCn3cccn3)cc2)cc1 (stereo not drawn) [Example 180, 1-(2-(4′-(2-(1H-Pyrazol-1-yl)ethoxy)-[1,1′-biphenyl]-4-yl)propan-2-yl)-3-(3-methylquinuclidin-3-yl)urea]
- pIC50 [1, 4]: 8.74
- pIC50 (B16 mouse melanoma cells; [5]): 5.50
- pIC50 [2]: 8.28
- pIC50 [3, 6]: 7.33
- pIC50 (C32 human melanoma cells; [7]): 5.50

SMILES: CC(C)(NC(=O)NC1(C)CCN2CCC1CC2)c1ccc(-c2ccc(OCCn3cccn3)cc2)cc1 (stereo not drawn) [Example 181, 1-(2-(4′-(2-(1H-Pyrazol-1-yl)ethoxy)-[1,1′-biphenyl]-4-yl)propan-2-yl)-3-(4-methyl-1-azabicyclo[3.2.2]nonan-4-yl)urea]
- pIC50 [1, 4]: 9.23
- pIC50 (B16 mouse melanoma cells; [5]): 6.00
- pIC50 [2]: 8.63
- pIC50 [3, 6]: 8.29
- pIC50 (C32 human melanoma cells; [7]): 6.00

SMILES: CC(C)(NC(=O)OC1CN2CCC1CC2)c1ccc(-c2ccc(OCCn3ccnn3)cc2)cc1 (stereo not drawn) [Example 182, Quinuclidin-3-yl (2-(4′-(2-(1H-1,2,3-triazol-1-yl)ethoxy)-[1,1′-biphenyl]-4-yl)propan-2-yl)carbamate]
- pIC50 [1, 8]: 7.88
- pIC50 (B16 mouse melanoma cells; [9]): 5.50
- pIC50 [2]: 7.37
- pIC50 [3, 10]: 6.41
- pIC50 (C32 human melanoma cells; [11]): 6.00
